Patent US20050267067A1, “Radical reaction inhibitors, method for inhibition of radical reactions, and use thereof” (priority 2002, published 2005)

Columns and labels:
calf serum albumin (BSA) = experiment: Modification of BSA by lipid peroxides (protein carbonyl, OLAARPs); type: biochemical; details: for OLAARPs Formation: (%) / Protein carbonyl Formation: (%): BSA, versus no saccharide; for Formed OLAARPs / Formed Protein carbonyl: 37° C., 24 hours
Experimental: In this experiment, saccharide solutions were prepared to give an equal total saccharide molar concentration in each solution.
As a negative control, PBS was used.
To five milliliters of either of the above saccharide solutions for testing or the negative control was added 10 mg of calf serum albumin (BSA) or L-lysine, followed by dissolving. To each of the resulting solutions was added 25 μg of 2,4-decadienal or malondialdehyde (MDA) as a lipid peroxide, followed by reaction at 37° C. for 24 hours. After completion of the reaction, protein carbonyl and reaction products of oxidized lipids/aminoacids (OLAARPs) formed as aldehyde adducts were quantified on the calorimetric method. […] The formation levels of protein carbonyl and OLAARPs were determined based on the absorbances obtained in this experiment, in terms of the molar absorbance coefficient for each molecule as disclosed in Biochim. Biophys.
To each of the resulting mixtures was added 600 μl of 30% trichloroacetic acid, and the mixture was allowed to stand at 0° C. for one hour and centrifuged at 10,000 rpm for 15 min to obtain a precipitate, followed by washing the resulting precipitate four times with two milliliters of ethanol/ethylacetate (1:1), respectively, adding 1.5 ml of 6M-guanidine hydrochloride/20 mM-NaPi/TFA (pH 2.3) to the resultant, allowing the mixture to stand at 37° C. for 30 min, and measuring the absorbance of the resulting mixture at a wavelength of 580 nm, ε=35,000 M^−1 cm^−1.

[1] = Preservation of powdery vitamin E preparations at 60° C., GC; type: physicochemical; details: for Amount of vitamin E: per one gram of vitamin E preparation
Experimental: Vitamin E (α-tocopherol) commercialized by Wako Pure Chemical Industries Ltd., Tokyo, Japan, was dissolved in ethanol (a special grade reagent, commercialized by Katayama Chemical Industries Co., Ltd., Osaka, Japan) to make into an ethanol solution with a vitamin E content of 10%. Ten grams of the powdery anhydrous cyclotetrasaccharide, prepared in Example 3, were placed in a glass mortar and then a small amount of […] was added to the cyclotetrasaccharide. Using a glass rod, the mixture was repeatedly mixed with additional ethanol or acetic acid until the mixture could not keep its powdery form. Thus, a vitamin E preparation was obtained. As controls, vitamin E preparations were prepared by using “ISOELITE P™”, a powdery branched cyclodextrin commercialized by Ensuiko Sugar Refining Co., Ltd., Tokyo, Japan, a powdery anhydrous crystalline α,α-trehalose prepared according to the method disclosed in Japanese Patent Kokai No. 213,283/95, “PINEFIBER™”, a powdery dextrin product commercialized by Matsutani Chemical Industries Co., Ltd., Hyogo, Japan, or a soluble starch commercialized by Katayama Chemical Industries Co., Ltd., Osaka, Japan, except for using cyclotetrasaccharide by the same procedure. Successively, each powdery vitamin E preparation was dried under a reduced pressure by keeping the preparation at ambient temperature for five hours in a desiccators containing (P2O5) to evaporate ethanol. About 0.5 gram each of the five powdery vitamin E preparations containing any one of those saccharides was weighted and placed in 20 ml-glass vials and sealed. […] The amount of vitamin E in each sample was determined by: adding 10 ml of ethanol to each of the vials containing the test samples; extracting vitamin E by shaking the resulting suspensions; centrifuging the suspensions at 10,000 rpm for 10 minutes; and measuring the amount of vitamin E in the resulting supernatants by gas-chromatography (GC). GC was carried out using “GC-14A”, a GL apparatus produced by Shimadzu Corporation, Kyoto, Japan, installed with “DB-1”, a column (internal diameter: 0.25 mm, length: 30 m) commercialized by Agilent Technologies, USA (former name; J & W Scientific, USA). The amount of vitamin E (mg) per one gram of a vitamin E preparation and the residual vitamin E (%) was calculated and expressed with a relative value, when the amount of vitamin E in each test sample just after its preparation was regarded as 100%, as shown in Table 11.

[2] = Preservation of vitamin D3 tablets at 60° C., absorbance at 265 nm; type: physicochemical; details: for Amount of vitamin D3: per one gram of vitamin D3 tablet
Experimental: Vitamin D3 (cholecalciferol), as vitamin D, commercialized by Wako Pure Chemical Industries Ltd., Tokyo, Japan, was dissolved in ethanol with the highest purity, commercialized by Katayama Chemical Industries Co., Ltd., Osaka, Japan, to make into an ethanol solution with a vitamin D3 content of 3%. To eight grams of the powdery anhydrous cyclotetrasaccharide, prepared in Example 3, was added 1.5 ml of the above ethanol solution and the resulting mixture was pulverized similarly as in Example 20, dried under a reduced pressure, and made into a powdery vitamin D3 preparation containing cyclotetrasaccharide. […] About 0.3 gram each of the powdery vitamin D3 preparations containing any one of the above saccharides was made into a vitamin D3 tablet by pressurizing at 200 kg/cm^2 for two minutes using a tablet machine. Vitamin D3 tablets thus obtained were weighted and each one tablet of which was placed in a 20 ml-glass vial and sealed to obtain five kinds of vitamin D3 tablets containing a saccharide. The vials were preserved under a normal pressure at 60° C. and the amount of vitamin D3 remaining in the vials was examined just after preparation, after preserving for two hours, one day, two days, and seven days, respectively. The amount of vitamin D3 in each tablet was determined by: adding 10 ml of 70% aqueous ethanol solution to each vial containing any of the test samples; crushing the tablets using a glass rod before extracting vitamin D3; filling up the total volume to 50 ml with 70% aqueous ethanol solution; centrifuging the resulting solutions at 10,000 rpm for 10 minutes; filtrating the resulting supernatants; and measuring the absorbance at a wavelength of 265 nm for the resulting filtrates. The amount of vitamin D3 was calculated based on the absorbance coefficient (E1%) at a wavelength of 265 nm, which was regarded as 475. The amount of vitamin D3 (mg) per one gram of each of the vitamin D3 tablets and the residual vitamin D3 (%) was calculated based on the amount of vitamin D3 in the test samples just after preparation, which was regarded as 100%. The results are in Table

[3] = 2,4-decadienal, listed as cyclotetrasaccharide
[4] = MDA, listed as cyclotetrasaccharide
[5] = added lipid peroxide 2,4-decadienal
[6] = added lipid peroxide malondialdehyde (MDA)
[7] = just after its preparation (regarded as 100%)

## OCC1OC2OCC3O[C@H](O[C@H]4C(O)C(CO)OC(OCC5O[C@H](O[C@@H](C1O)C2O)C(O)C(O)[C@@H]5O)C4O)C(O)C(O)[C@@H]3O (stereo partly drawn) [Cyclotetrasaccharide, cyclo{→6}-α-D-glucopyranosyl-(1→3)-α-D-glucopyranosyl-(1→6)-α-D-glucopyranosyl-(1→3)-α-D-glucopyranosyl-(1→}]
Calf serum albumin (BSA); 2,4-decadienal
  OLAARPs Formation: (%): (69) %
  Protein carbonyl Formation: (%): (45) %
Calf serum albumin (BSA); [3]
  OLAARPs Formation: (%): about 69%
  Protein carbonyl Formation: (%): about 45%
Calf serum albumin (BSA); MDA
  OLAARPs Formation: (%): (80) %
  Protein carbonyl Formation: (%): (45) %
Calf serum albumin (BSA); [4]
  OLAARPs Formation: (%): about 80%
  Protein carbonyl Formation: (%): about 45%
Calf serum albumin (BSA); [5]
  Formed OLAARPs: 2.92 μmol/g-BSA
  Formed Protein carbonyl: 6.34 μmol/g-BSA
Calf serum albumin (BSA); [6]
  Formed OLAARPs: 4.68 μmol/g-BSA
  Formed Protein carbonyl: 1.09 μmol/g-BSA
[1]; 0 days (regarded as 100%)
  Residual vitamin E (%): (100) %
[1]; 1 day at 60° C.
  Residual vitamin E (%): (98) %
  Amount of vitamin E: 74.4 mg
[1]; 3 days at 60° C.
  Residual vitamin E (%): (95) %
  Amount of vitamin E: 72.0 mg
[1]; 7 days at 60° C.
  Residual vitamin E (%): (90) %
  Amount of vitamin E: 68.5 mg
[1]; 14 days at 60° C.
  Residual vitamin E (%): (61) %
  Amount of vitamin E: 46.3 mg
[1]; 0 days at 60° C.
  Amount of vitamin E: 75.9 mg
[2]; [7]
  Residual D3 percentage (%): (100) %
[2]; one day at 60° C.
  Residual D3 percentage (%): (66) %
  Amount of vitamin D3: 3.49 mg
[2]; just after its preparation
  Amount of vitamin D3: 5.27 mg
[2]; seven days at 60° C.
  Amount of vitamin D3: 2.65 mg
  Residual D3 percentage (%): (50) %
[2]; two days at 60° C.
  Amount of vitamin D3: 2.91 mg
  Residual D3 percentage (%): (55) %
[2]; two hours at 60° C.
  Amount of vitamin D3: 4.57 mg
  Residual D3 percentage (%): (87) %
[2]; seven days at 60° C., listed as cyclotetrasaccharide
  Residual D3 percentage (%): 90%

## OC[C@H]1O[C@H](O[C@H]2O[C@H](CO)[C@@H](O)[C@H](O)[C@H]2O)[C@H](O)[C@@H](O)[C@@H]1O [α, α-Trehalose, α, α-trehalose, reference compound]
Calf serum albumin (BSA); 2,4-decadienal
  OLAARPs Formation: (%): (63) %
  Protein carbonyl Formation: (%): (58) %
Calf serum albumin (BSA); MDA
  OLAARPs Formation: (%): (56) %
  Protein carbonyl Formation: (%): (60) %
Calf serum albumin (BSA); [5]
  Formed OLAARPs: 2.67 μmol/g-BSA
  Formed Protein carbonyl: 8.26 μmol/g-BSA
Calf serum albumin (BSA); [6]
  Formed OLAARPs: 3.24 μmol/g-BSA
  Formed Protein carbonyl: 1.45 μmol/g-BSA
[1]; 0 days (regarded as 100%)
  Residual vitamin E (%): (100) %
[1]; 1 day at 60° C.
  Residual vitamin E (%): (99) %
  Amount of vitamin E: 36.2 mg
[1]; 3 days at 60° C.
  Residual vitamin E (%): (85) %
  Amount of vitamin E: 31.0 mg
[1]; 7 days at 60° C.
  Residual vitamin E (%): (73) %
  Amount of vitamin E: 26.6 mg
[1]; 14 days at 60° C.
  Residual vitamin E (%): (41) %
  Amount of vitamin E: 15.1 mg
[1]; 0 days at 60° C.
  Amount of vitamin E: 36.7 mg
[2]; [7]
  Residual D3 percentage (%): (100) %
[2]; one day at 60° C.
  Residual D3 percentage (%): (24) %
  Amount of vitamin D3: 1.11 mg
[2]; just after its preparation
  Amount of vitamin D3: 4.67 mg
[2]; seven days at 60° C.
  Amount of vitamin D3: 1.05 mg
  Residual D3 percentage (%): (22) %
[2]; two days at 60° C.
  Amount of vitamin D3: 1.02 mg
  Residual D3 percentage (%): (22) %
[2]; two hours at 60° C.
  Amount of vitamin D3: 1.58 mg
  Residual D3 percentage (%): (34) %
